Columns and labels:
[1] = target: cGMP-specific 3',5'-cyclic phosphodiesterase (Homo sapiens, UniProt O76074); test: Inhibition of human PDE5A preincubated for 30 mins followed by TMB substrate addition by spectrophotometry
[2] = target: Acetylcholinesterase (Homo sapiens, UniProt P22303); test: Inhibition of AChE (unknown origin) using acetylthiocholine as substrate by Ellman's method
[3] = test system: A549; test: Cytotoxicity against human A549 cells at 50 ug/ml after 24 hrs by CCK-8 assay; type: cell-based; details: a549, 24 h

Chain of Acetylcholinesterase (P22303 whole entry): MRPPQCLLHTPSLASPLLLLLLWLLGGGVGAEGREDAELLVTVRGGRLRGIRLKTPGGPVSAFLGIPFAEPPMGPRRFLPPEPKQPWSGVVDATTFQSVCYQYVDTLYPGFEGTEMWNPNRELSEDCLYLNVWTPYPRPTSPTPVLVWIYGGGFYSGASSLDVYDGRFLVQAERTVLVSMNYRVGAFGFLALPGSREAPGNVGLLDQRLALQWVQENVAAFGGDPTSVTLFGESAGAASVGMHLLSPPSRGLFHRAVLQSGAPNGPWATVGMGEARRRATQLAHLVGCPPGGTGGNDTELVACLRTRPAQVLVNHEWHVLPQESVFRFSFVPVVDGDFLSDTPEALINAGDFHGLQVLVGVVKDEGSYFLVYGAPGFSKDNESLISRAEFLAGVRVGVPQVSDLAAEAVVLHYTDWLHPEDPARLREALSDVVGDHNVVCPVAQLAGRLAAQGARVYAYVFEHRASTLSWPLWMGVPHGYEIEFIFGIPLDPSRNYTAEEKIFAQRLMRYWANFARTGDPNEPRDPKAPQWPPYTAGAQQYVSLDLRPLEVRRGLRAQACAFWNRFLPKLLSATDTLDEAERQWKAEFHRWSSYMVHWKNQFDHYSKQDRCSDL

Row | SMILES | IC50 [1] [µM] | IC50 [2] [µM] | Activity [3]
1 | COc1ccc(NCc2ccc3c(c2)C(=O)C(=O)N3C(=O)c2ccccc2)cc1 | 100 | 0.17 | 
2 | CN1CCN(Cc2ccc3c(c2)C(=O)C(=O)N3C(=O)c2ccccc2)CC1 | > 1000 | 0.0479 | 
3 | COC(=O)C(=O)c1cc(C)ccc1NC(=O)c1ccccc1 |  | > 1 | 
4 | O=C(O)CCC(=O)NCc1ccc2c(c1)CC(=O)N2C(=O)c1ccccc1 | 17.6 | > 1 | 
5 | CCN(CC)Cc1ccc(NC(=O)c2ccccc2)c(C(=O)C(=O)N(CC)CC)c1 | 158 | 0.0447 | Non-Toxic
6 | Cc1ccc2c(c1)C(=O)C(=O)N2C(=O)c1ccccc1 | 746 | > 1 | 
7 | Cc1ccc2c(c1)C(=O)C(=O)N2Cc1ccccc1[N+](=O)[O-] | 200 | 0.2 | 
8 | O=C(Nc1ccc(CN2CCOCC2)cc1C(=O)C(=O)N1C(=O)CCC1=O)c1ccccc1 |  | 0.229 | 
9 | O=C1C(=O)N(Cc2ccccc2[N+](=O)[O-])c2ccc(Br)cc21 |  | 0.263 | 
10 | O=C1C(=O)N(C(=O)c2ccccc2)c2ccc(CN3CCCCC3)cc21 | 50 | 0.0794 | Non-Toxic
11 | O=C1C(=O)N(C(=O)c2ccccc2)c2ccc(CNc3ccc(Br)cc3)cc21 |  | 0.398 | 
12 | Cc1ccc2c(c1)CC(=O)N2C(=O)c1ccccc1 | 91.2 | > 1 | 
13 | Cc1ccc2c(c1)C(=O)C(=O)N2C(=O)N(C)C | 100 | 0.144 | Non-Toxic
14 | O=C1C(=O)N(Cc2ccc(Br)cc2)c2ccc(Br)cc21 | 131 | 0.0891 | 
15 | Cc1ccc2c(c1)C(=O)C(=O)N2Cc1ccc(Br)cc1 |  | 0.204 | 

Source: ChEMBL document CHEMBL4052796, “Design, synthesis and biological evaluation of dual acetylcholinesterase and phosphodiesterase 5A inhibitors in treatment for Alzheimer's disease” (Bioorg Med Chem Lett, 2017)
